Measurements as given in PMC9266914, “Broad Spectrum Functional Activity of Structurally Related Monoanionic Au(III) Bis(Dithiolene) Complexes” (International Journal of Molecular Sciences, 2022).
Values joined by “and” are separate entries in the source; they are usually repeats but may differ in a detail not shown here. Identical values can stand only once. Like-named read-outs stand apart in the source and are kept apart here.

Assays:
TZM-bl cells = test: alamarBlue cytotoxicity in TZM-bl cells; format: cell-based
Description: The in vitro cytotoxicity of auranofin, [P][AuSBu(=S)] and [P][AuSEt(=S)] was evaluated in TZM-bl cells using alamarBlue cell viability reagent (Life Technologies, Carlsbad, CA, USA). TZM-bl cells (AIDS Research and Reference Reagent Program, National Institutes of Health, Bethesda, MD, USA) were cultured in complete growth medium that consists of Dulbecco’s minimal essential medium (DMEM) supplemented with 10% fetal bovine serum (FBS), 100 U/ml of penicillin-streptomycin (Gibco/Invitrogen, Waltham, MA, USA), 1 mM of sodium pyruvate (Gibco/Invitrogen, Carlsbad, CA, USA), 2 mM of L-glutamine (Gibco/Invitrogen, USA) and 1 mM of non-essential amino acids (Gibco/Invitrogen, USA). Cells were cultured in the presence and absence of serial-fold dilutions of the compounds. At least two independent experiments were performed for each cytotoxicity analysis. Each dilution of each compound was performed in triplicate wells. For each assay we had medium controls (only growth medium), cell controls (cells without test compound) and cytotoxicity controls (a compound that kill cells). The cytotoxicity of each compound was expressed by the 50% cytotoxic concentration (CC50), which is the concentration of compound causing 50% decrease in cellular viability.

C. albicans SC5134 = test: MIC determination, C. albicans; format: cell-based, Candida albicans; settings: RPMIG, 24 h, 35 °C
Description: (§1) The bacterial strains Escherichia coli ATCC25922 and Staphylococcus aureus Newman were used in this work and maintained in Lennox Broth (LB) solid medium, composed of 10 g/L tryptone, 5 g/L yeast extract, 5 g/L NaCl and 20 g/L agar. The fungal strains Candida albicans SC5134 and C. glabrata CBS138 were used in this work and maintained in YPD solid medium, composed of 20 g/L glucose, 20 g/L peptone, 10 g/L yeast extract and 15 g/L agar. The strains were isolated from human infections.
(§2) The antimicrobial activity of the complexes towards the bacterial and fungal strains was assessed by the determination of the Minimal Inhibitory Concentration (MIC) of each complex towards the indicated microbial strains, based on standard methods, and as previously described. […] Serial 1:2 dilutions of stock solutions were prepared for each complex in Mueller–Hinton (MH) broth (Fluka Analytical) or RPMI-1640 medium (Sigma) supplemented with 20 g/L glucose and buffered with 0.165 M morpholinepropanesulphonic acid (RPMIG) to pH 7.0. Solutions prepared with MH were used for testing bacteria, while those prepared with RPMIG were used for testing fungi. For antibacterial activity assays, the final concentrations ranged from 250 to 0.24 μg/mL (when stock solution final concentration was 10 mg/mL), 125 μg/mL to 0.12 μg/mL (when stock solution final concentration was 5 mg/mL) and 62.5 to 0.06 μg/mL (when stock solution final concentration was 2.5 mg/mL). For antifungal assays, the final concentrations ranged from 125 μg/mL to 0.12 μg/mL (when stock solution final concentration was 10 mg/mL), 62.5 to 0.06 μg/mL (when stock solution final concentration was 5 mg/mL) and 31.25 to 0.03 μg/mL (when stock solution final concentration was 2.5 mg/mL). Then, 100 μL aliquots of adequately diluted bacterial suspensions of S. aureus Newman or E. coli ATCC 25922 were mixed with the MH serially diluted complexes aliquots to obtain 5 × 10^5 CFU/mL. In the case of fungi, cultures were diluted to obtain a final optical density of 0.025, measured at 530 nm (OD530). Bacterial suspensions were prepared from cultures grown for 5 h in MH broth at 37 °C and 250 rev·min^−1 and adequately diluted with fresh MH medium, while fungal suspensions were prepared from overnight cultures grown in YPD broth at 30 °C and 250 rev.min^−1 and diluted in buffered RPMIG. After 22 h of incubation at 37 °C (bacteria) or 24 h at 35 °C (fungi), the wells’ content was resuspended by pipetting and the OD640 (bacteria) or OD530 (fungi) were measured in a SPECTROstar Nano microplate reader (BMG Labtech).
(§3) At least three independent experiments were performed in duplicate for each complex under study. […] Positive (no complex) and negative controls (no inoculum) were performed for each experiment. The effect of 5% (V/V) DMSO on microbial growth was also assessed.

HIV-1 SG3.1 = test: Single-round viral infectivity assay in TZM-bl reporter cells; format: cell-based; settings: SG3.1 isolate, 48 h, in words
Description: The HIV-1 SG3.1 subtype B strain was obtained by transfection of HEK293T cells with pSG3.1 plasmid using jetPrime transfection reagent (Polyplus-tranfection SA, Illkirch, France) according to the manufacturer’s instructions. The 50% tissue culture infectious dose (TCID50) of the virus was determined in a single-round viral infectivity assay using a luciferase reporter gene assay in TZM-bl cells and calculated using the statistical method of Reed and Muench.
The antiviral activity of Auranofin, [P][AuSEt(=S)] and [P][AuSBu(=S)] compounds was determined in a single-round viral infectivity assay using TZM-bl reporter cells, as previously described. Briefly, TZM-bl cells were infected with 200 TCID50 of SG3.1 in the presence of serial-fold dilutions of the compounds in growth medium, supplemented with DEAE-dextran. After 48 h of infection, luciferase expression was quantified with Pierce Firefly Luc One-Step Glow Assay Kit (ThermoFisher Scientific, Rockford, IL, USA) according to the manufacturer’s instructions.
At least two independent experiments were performed for each antiviral activity analysis. The assay was set up in triplicate wells. Virus controls and cell controls were used.

[1] = system: A2780 ovarian cancer cells; test: MTT cytotoxicity assay in A2780 (cisplatin sensitive) ovarian cancer cells; format: cell-based, human
In short: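 Cells in RPMI-1640 with 10% FBS exposed to complexes at 0.01–100 μM for 24 and/or 48 h at 37 °C. Viability by colorimetric MTT; IC50 derived from dose–response curves.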

S. aureus Newman = test: MIC determination, S. aureus; format: cell-based, Staphylococcus aureus; settings: MH broth, 22 h, 37 °C
Description: as §1, §2, §3

[2] = 24 h incubation, read-out: IC50 A2780, 24 h
[3] = 48 h incubation, read-out: IC50 A2780, 48 h

SMILES | CC50 (TZM-bl cells; TZM-bl cells, alamarBlue, read-out: CC50) [nM] | MIC C. albicans SC5134 (C. albicans SC5134) | anti-HIV-1 activity (HIV-1 SG3.1) | IC50 [1, 2] [nM] | MIC S. aureus Newman (S. aureus Newman) | CC50 (TZM-bl cells) | cytotoxicity in TZM-bl culture cells (TZM-bl cells) | IC50 [1, 3] [nM]
CC(=O)OC[C@H]1O[C@@H]([S-])[C@H](OC(C)=O)[C@@H](OC(C)=O)[C@@H]1OC(C)=O.CCP(CC)CC.[Au+] [Auranofin, reference compound] | 3210 | 7.9 µg/mL and 7.9 ± 0.5 µg/mL | none of the compounds presented anti-HIV-1 activity | 2010 ± 710 | 0.2 µg/mL and 0.173 ± 0.004 µg/mL | – | – | –
CCCCn1c2c(sc1=S)[S][Au-]1([S]c3sc(=S)n(CCCC)c3[S]1)[S]2.c1ccc([P+](c2ccccc2)(c2ccccc2)c2ccccc2)cc1 [[P][AuSBu(=S)]] | – | >62.5 µg/mL | none of the compounds presented anti-HIV-1 activity | 1380 ± 280 | >125 µg/mL | not possible to calculate | No significant cytotoxicity | 950 ± 50
CCn1c2c(sc1=S)[S][Au-]1([S]c3sc(=S)n(CC)c3[S]1)[S]2.c1ccc([P+](c2ccccc2)(c2ccccc2)c2ccccc2)cc1 [[P][AuSEt(=S)]] | – | >62.5 µg/mL | none of the compounds presented anti-HIV-1 activity | 580 ± 200 | >125 µg/mL | 4920 nM | No significant cytotoxicity | 180
CCn1c2c(sc1=[Se])[S][Au-]1([S]c3sc(=[Se])n(CC)c3[S]1)[S]2.c1ccc([P+](c2ccccc2)(c2ccccc2)c2ccccc2)cc1 [[P][AuSEt(=Se)]] | – | >62.5 µg/mL | – | 710 ± 120 | >125 µg/mL | – | – | 220 ± 110
CC(C)n1c2c(sc1=S)[Se][Au-]1([Se]c3sc(=S)n(C(C)C)c3[Se]1)[Se]2.c1ccc([P+](c2ccccc2)(c2ccccc2)c2ccccc2)cc1 [[P][AuSeiPr(=S)]] | – | >31.25 µg/mL | – | 3740 ± 1220 | >62.5 µg/mL | – | – | 680 ± 180
